These results are taken from ChEMBL document CHEMBL5550095 (Bioorg Med Chem, 2024).

In one data set the test system is Plasmodium falciparum. Nature of the data set: Antiplasmodial activity against Plasmodium falciparum K1 infected in erythrocytes assessed as reduction in parasite DNA after 72 hrs by SYBR Green I fluorescence based assay. Type of data set: functional, organism-based. As to conditions: K1, Erythrocyte.
Data set [1] in a line: Selectivity index, ratio of CC50 for human HepG2 cells to EC50 for Plasmodium falciparum K1. The following applies: read-out: Ratio CC50/EC50. Type of data set: toxicity.
Data set [2] in a line: Inhibition of Plasmodium falciparum PYK-1.
Data set [3] deals with Bifunctional dihydrofolate reductase-thymidylate synthase (Plasmodium falciparum K1) (UniProt P13922). Nature of the data set: Inhibition of Plasmodium falciparum DHFR.
Chain of Bifunctional dihydrofolate reductase-thymidylate synthase (Plasmodium falciparum K1) (P13922 whole entry, looked up): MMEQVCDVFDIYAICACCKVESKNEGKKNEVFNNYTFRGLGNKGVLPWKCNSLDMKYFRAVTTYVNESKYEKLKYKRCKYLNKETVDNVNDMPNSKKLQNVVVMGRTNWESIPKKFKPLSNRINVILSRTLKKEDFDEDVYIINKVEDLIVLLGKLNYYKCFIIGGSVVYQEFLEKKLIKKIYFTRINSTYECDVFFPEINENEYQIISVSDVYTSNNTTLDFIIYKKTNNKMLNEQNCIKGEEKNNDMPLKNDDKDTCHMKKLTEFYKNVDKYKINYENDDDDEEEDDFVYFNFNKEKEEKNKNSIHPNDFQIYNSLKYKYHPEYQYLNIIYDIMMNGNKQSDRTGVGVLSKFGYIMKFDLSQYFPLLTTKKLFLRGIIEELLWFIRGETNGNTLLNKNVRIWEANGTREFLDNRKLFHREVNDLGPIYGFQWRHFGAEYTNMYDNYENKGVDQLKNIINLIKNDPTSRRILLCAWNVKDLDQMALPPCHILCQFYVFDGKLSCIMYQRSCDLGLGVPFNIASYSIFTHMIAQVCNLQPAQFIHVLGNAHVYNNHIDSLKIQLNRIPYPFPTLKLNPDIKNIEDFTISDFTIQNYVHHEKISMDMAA
Data set [4] can be described thus: Half-life in mouse liver microsomes. Type of data set: ADME, Microsome. For orientation: Liver microsomes are a subcellular fraction often used to study metabolism.
The nature of data set [5]: Lipophilicity, logD of the compound at pH 7.4. Type of data set: physicochemical. As to conditions: buffer.
The nature of data set [6]: Half-life in mouse plasma. Type of data set: ADME, cell-free.
Data set [7] is described as follows: Cytotoxicity against human HepG2 cells incubated for 72 hrs by MTT assay. Type of data set: toxicity, cell-based. (Tetrazolium dyes change colour on reduction, which living cells bring about.)

The term EC50 denotes the concentration needed to bring the measured effect to its halfway point. As usually defined, the IC50 is the midpoint of a concentration-inhibition curve. Low readings indicate greater potency in that assay, high ones weaker potency in that assay. One may read the half-life as how long it takes for the measured level to halve. Low values mean fast loss, high ones slow loss. The term logD denotes lipophilicity at a set pH, counting ionised and neutral species. Lower therefore signals lower lipophilicity. The term CC50 denotes the concentration giving 50% cytotoxicity. Low values mean greater toxicity to the cells, high ones lower toxicity to the cells.

Calls of active or inactive are those of the source. The rule behind the calls is not given here.

In the case of `C[C@H]1c2cccc(O)c2C(=O)C2=C(O)[C@]3(O)C(=O)C(C(N)=O)=C(O)[C@@H](N(C)C)[C@@H]3[C@@H](O)[C@@H]21` [DOXYCYCLINE ANHYDROUS], in the data set with Plasmodium falciparum, the concentration for a half-maximal effect (EC50) amounted to 5 µM. In addition, the selectivity ratio in data set [1] is 4.

The compound `O=C(O)C(=O)O` [OXALIC ACID] gave an IC50 in data set [2] of 150 µM.

For the compound `Clc1ccc(Nc2nc(C(Cl)(Cl)Cl)nc3ccccc23)c(Cl)c1`, the inhibition entry in data set [3] was “Active”. In addition, the half-life in data set [4] was 18 min; in data set [6], greater than 360 min. Besides, in data set [5], the logD came to 3.6.

Consider `CCN(CC)CCCC(C)Nc1ccnc2cc(Cl)ccc12` (configuration not stated) [CHLOROQUINE], for which the EC50 in the data set with Plasmodium falciparum was 0.5 µM. In data set [1], the selectivity ratio worked out at 60.

The compound `Cc1ccc(C(=O)Nc2ccc(S(=O)(=O)O)c3cc(S(=O)(=O)O)cc(S(=O)(=O)O)c23)cc1NC(=O)c1cccc(NC(=O)Nc2cccc(C(=O)Nc3cc(C(=O)Nc4ccc(S(=O)(=O)O)c5cc(S(=O)(=O)O)cc(S(=O)(=O)O)c45)ccc3C)c2)c1` [SURAMIN] came in with an IC50 in data set [2] of 128 µM.

For the compound `CC(C)(C)OC(=O)NCCOCCOCCNCc1ccc2c(Nc3ccc(Cl)cc3Cl)nc(C(Cl)(Cl)Cl)nc2c1`, the EC50 with Plasmodium falciparum is 0.6 µM. Moreover, the cytotoxic concentration (CC50) at 72 h in data set [7] came out at 19 µM. Further, the selectivity ratio in data set [1] was found to be 32.

`CC(C)(C)OC(=O)NCCCOCCOCCOCCCNCc1ccc2c(Nc3ccc(Cl)cc3Cl)nc(C(Cl)(Cl)Cl)nc2c1`: the concentration for a half-maximal effect (EC50) with Plasmodium falciparum is 0.15 µM. The compound also yielded a CC50 at 72 h in data set [7] of 3.1 µM. The selectivity ratio in data set [1] is 21.

`C[C@H]1[C@H](OC(=O)CCC(=O)O)O[C@@H]2O[C@@]3(C)CC[C@H]4[C@H](C)CC[C@@H]1[C@@]24OO3` [ARTESUNATE]: in the data set with Plasmodium falciparum, the EC50 came to 0.004 µM.
